Data from patent US20090253669A1, “Substituted Sulfonamide Compounds” (GRUENENTHAL GmbH, priority 2008, published 2009).

Experiments:
[1] = biological target: T1, B1R receptor of the rat (rB1R) (Rattus norvegicus, UniProt P97583); experiment: FLIPR Ca2+ assay on rB1R-transfected CHO K1 cells, antagonistic action; type: cell-based; conditions: agonist Des-Arg9-bradykinin 100 nM, % of maximum achievable inhibition; for inhibition at 10 µM: CHO-K1, 10 μM test substance, read-out: rB1R [10 μM] % inhibition; for rB1R [10 μM] % inhibition: 10 μM test substance
T1 construct: host or cells: CHO K1 cells
T1 sequence (P97583 1-337): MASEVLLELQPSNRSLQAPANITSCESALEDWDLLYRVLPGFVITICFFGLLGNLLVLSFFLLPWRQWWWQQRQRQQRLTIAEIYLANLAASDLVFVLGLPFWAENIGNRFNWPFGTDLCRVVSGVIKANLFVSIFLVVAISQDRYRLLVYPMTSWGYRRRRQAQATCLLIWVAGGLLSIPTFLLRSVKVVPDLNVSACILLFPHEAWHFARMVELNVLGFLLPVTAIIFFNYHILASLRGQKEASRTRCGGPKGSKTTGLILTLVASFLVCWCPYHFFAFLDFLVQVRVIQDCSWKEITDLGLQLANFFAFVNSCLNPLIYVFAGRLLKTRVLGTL

[2] = biological target: T2, human B1R receptor (hB1R) (Homo sapiens, UniProt P46663); experiment: FLIPR Ca2+ assay on hB1R-transfected CHO K1 cells, antagonistic action; type: cell-based; conditions: agonist Lys-Des-Arg9-bradykinin 0.5 nM, % of maximum achievable inhibition; for inhibition at 10 µM: CHO-K1, 10 μM test substance, read-out: hB1R [10 μM] % inhibition; for hB1R [10 μM] % inhibition: 10 μM test substance
T2 construct: host or cells: CHO K1 cells
T2 sequence (P46663 1-353): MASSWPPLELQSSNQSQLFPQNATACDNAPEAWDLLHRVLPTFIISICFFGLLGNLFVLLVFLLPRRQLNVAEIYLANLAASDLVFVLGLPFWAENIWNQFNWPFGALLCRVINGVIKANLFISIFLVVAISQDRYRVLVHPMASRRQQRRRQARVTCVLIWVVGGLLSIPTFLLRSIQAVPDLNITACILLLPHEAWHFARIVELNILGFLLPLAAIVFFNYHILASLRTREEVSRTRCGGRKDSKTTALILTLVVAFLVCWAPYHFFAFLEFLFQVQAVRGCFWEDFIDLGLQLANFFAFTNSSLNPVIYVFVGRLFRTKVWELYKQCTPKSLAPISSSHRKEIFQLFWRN

| Compound | inhibition at 10 µM [1] [%] | inhibition at 10 µM [2] [%] | rB1R [10 μM] % inhibition [1] [%] | hB1R [10 μM] % inhibition [2] [%] |
| --- | --- | --- | --- | --- |
| COc1cc(C)c(S(=O)(=O)N2CCCCC2COCC(=O)N(C)CCC2CCC(c3ccccc3)(N3CCCC3)CC2)c(C)c1 (centres unmarked) [Compound 60, 2-((1-(4-methoxy-2,6-dimethylphenylsulfonyl)piperidin-2-yl)methoxy)-N-methyl-N-(2-(4-phenyl-4-(pyrrolidin-1-yl)cyclohexyl)ethyl)acetamide] | 100 | 103 |  |  |
| CN(CCC1CCC(Cc2ccccc2)(N(C)C)CC1)C(=O)COCC1CCc2ccccc2N1S(=O)(=O)c1ccc(Cl)c(Cl)c1 (centres unmarked) [Compound 61, N-(2-(4-benzyl-4-(dimethylamino)cyclohexyl)ethyl)-2-((1-(3,4-dichlorophenylsulfonyl)-1,2,3,4-tetrahydroquinolin-2-yl)methoxy)-N-methylacetamide] | 100 | 49 |  |  |
| COc1cc(C)c(S(=O)(=O)N2CCCCC2COCC(=O)N2CCC(c3ccccc3)(N3CCN(c4ccncc4)CC3)CC2)c(C)c1 (centres unmarked) [Compound 62, 2-((1-(4-methoxy-2,6-dimethylphenylsulfonyl)piperidin-2-yl)methoxy)-1-(4-phenyl-4-(4-(pyridin-4-yl)piperazin-1-yl)piperidin-1-yl)ethanone] | 100 | 103 |  |  |
| COc1cc(C)c(S(=O)(=O)N(C)CCOCC(=O)N2CCC(Cc3ccccc3)(N(C)C)CC2)c(C)c1 [Compound 63, N-(2-(2-(4-benzyl-4-(dimethylamino)piperidin-1-yl)-2-oxoethoxy)ethyl)-4-methoxy-N,2,6-trimethylbenzenesulfonamide] | 100 | 102 |  |  |
| CN1CCN(C2(c3ccccc3)CCN(C(=O)CC3CCCCN3S(=O)(=O)c3cccc(C(F)(F)F)c3)CC2)CC1 (centres unmarked) [Compound 64, 1-(4-(4-methylpiperazin-1-yl)-4-phenylpiperidin-1-yl)-2-(1-(3-(trifluoromethyl)phenylsulfonyl)piperidin-2-yl)ethanone] | 100 | 84 |  |  |
| COc1cc(C)c(S(=O)(=O)N2CCCCC2COCC(=O)N2CCC(Cc3ccccc3)(N(C)C)CC2)c(C)c1 (centres unmarked) [Compound 65, 1-(4-benzyl-4-(dimethylamino)piperidin-1-yl)-2-((1-(4-methoxy-2,6-dimethylphenylsulfonyl)piperidin-2-yl)methoxy)ethanone] | 100 | 104 |  |  |
| COc1cc(C)c(S(=O)(=O)N2CCCCC2COCC(=O)N(C)CC2CCC(c3ccccc3)(N3CCCC3)CC2)c(C)c1 (centres unmarked) [Compound 66, 2-((1-(4-methoxy-2,6-dimethylphenylsulfonyl)piperidin-2-yl)methoxy)-N-methyl-N-((4-phenyl-4-(pyrrolidin-1-yl)cyclohexyl)methyl)acetamide] | 100 | 102 |  |  |
| COc1cc(C)c(S(=O)(=O)N2CCCCC2COCC(=O)N2CCC(c3cccc(F)c3)(N3CCN(C)CC3)CC2)c(C)c1 (centres unmarked) [Compound 67, 1-(4-(3-fluorophenyl)-4-(4-methylpiperazin-1-yl)piperidin-1-yl)-2-((1-(4-methoxy-2,6-dimethylphenylsulfonyl)piperidin-2-yl)methoxy)ethanone] |  |  | 100 | 101 |
| COc1cc(C)c(S(=O)(=O)N2CCCCC2COCC(=O)N(C)CCC2CCC(Cc3ccccc3)(N3CCCC3)CC2)c(C)c1 (centres unmarked) [Compound 68, N-(2-(4-benzyl-4-(pyrrolidin-1-yl)cyclohexyl)ethyl)-2-((1-(4-methoxy-2,6-dimethylphenylsulfonyl)piperidin-2-yl)methoxy)-N-methylacetamide] | 100 | 103 |  |  |
| COc1cc(C)c(S(=O)(=O)N(C)CCOCC(=O)N2CCC(c3ccccc3)(N3CCN(c4ccncc4)CC3)CC2)c(C)c1 [Compound 69, 4-methoxy-N,2,6-trimethyl-N-(2-(2-oxo-2-(4-phenyl-4-(4-(pyridin-4-yl)piperazin-1-yl)piperidin-1-yl)ethoxy)ethyl)benzenesulfonamide] | 99 | 102 |  |  |
| COc1cc(C)c(S(=O)(=O)N2CCCCC2COCC(=O)N2CCC(c3ccc(F)cc3)(N3CCN(C)CC3)CC2)c(C)c1 (centres unmarked) [Compound 70, 1-(4-(4-fluorophenyl)-4-(4-methylpiperazin-1-yl)piperidin-1-yl)-2-((1-(4-methoxy-2,6-dimethylphenylsulfonyl)piperidin-2-yl)methoxy)ethanone] | 99 | 104 |  |  |
| CN(C)C1(CCc2ccccc2)CCN(C(=O)CC2CCCCN2S(=O)(=O)c2cccc(C(F)(F)F)c2)CC1 (centres unmarked) [Compound 71, 1-(4-(dimethylamino)-4-phenethylpiperidin-1-yl)-2-(1-(3-(trifluoromethyl)phenylsulfonyl)piperidin-2-yl)ethanone] | 99 | 92 |  |  |
| COc1cc(C)c(S(=O)(=O)N(C)CCOCC(=O)N(C)CCC2CCC(c3ccccc3)(N(C)C)CC2)c(C)c1 (centres unmarked) [Compound 72, N-(2-(4-(dimethylamino)-4-phenylcyclohexyl)ethyl)-2-(2-(4-methoxy-N,2,6-trimethylphenylsulfonamido)ethoxy)-N-methylacetamide] | 99 | 103 |  |  |
| COc1cc(C)c(S(=O)(=O)N2CCCCC2COCC(=O)N(C)CCC2CCC(CCc3ccccc3)(N(C)C)CC2)c(C)c1 (centres unmarked) [Compound 73, N-(2-(4-(dimethylamino)-4-phenethylcyclohexyl)ethyl)-2-((1-(4-methoxy-2,6-dimethylphenylsulfonyl)piperidin-2-yl)methoxy)-N-methylacetamide] | 99 | 104 |  |  |
| CN(CCCC1CCC(Cc2ccccc2)(N2CCCC2)CC1)C(=O)CC(NS(=O)(=O)c1ccc2ccccc2c1)c1ccccc1 (centres unmarked) [Compound 74, N-(3-(4-benzyl-4-(pyrrolidin-1-yl)cyclohexyl)propyl)-N-methyl-3-(naphthalene-2-sulfonamido)-3-phenylpropanamide] | 99 | 102 |  |  |
| COc1cc(C)c(S(=O)(=O)N2CCCCC2COCC(=O)N2CCC(c3ccccc3)(N(C)C)CC2)c(C)c1 (centres unmarked) [Compound 75, 1-(4-(dimethylamino)-4-phenylpiperidin-1-yl)-2-((1-(4-methoxy-2,6-dimethylphenylsulfonyl)piperidin-2-yl)methoxy)ethanone] |  |  | 99 | 103 |
| CN(CCC1CCC(CCc2ccccc2)(N(C)C)CC1)C(=O)CC1CCCCN1S(=O)(=O)c1cccc(C(F)(F)F)c1 (centres unmarked) [Compound 76, N-(2-(4-(dimethylamino)-4-phenethylcyclohexyl)ethyl)-N-methyl-2-(1-(3-(trifluoromethyl)phenylsulfonyl)piperidin-2-yl)acetamide] | 99 | 98 |  |  |
| COc1cc(C)c(S(=O)(=O)N2CCCCC2COCC(=O)N2CCC(CCc3ccccc3)(N3CCN(C)CC3)CC2)c(C)c1 (centres unmarked) [Compound 77, 2-((1-(4-methoxy-2,6-dimethylphenylsulfonyl)piperidin-2-yl)methoxy)-1-(4-(4-methylpiperazin-1-yl)-4-phenethylpiperidin-1-yl)ethanone] | 99 | 100 |  |  |
| COc1cc(C)c(S(=O)(=O)N2CCCCC2COCC(=O)N(C)CC2CCC(Cc3ccccc3)(N3CCCC3)CC2)c(C)c1 (centres unmarked) [Compound 78, N-((4-benzyl-4-(pyrrolidin-1-yl)cyclohexyl)methyl)-2-((1-(4-methoxy-2,6-dimethylphenylsulfonyl)piperidin-2-yl)methoxy)-N-methylacetamide] | 99 | 101 |  |  |
| CN(CCCC1CCC(CCc2ccccc2)(N2CCCC2)CC1)C(=O)CC(NS(=O)(=O)c1ccc2ccccc2c1)c1ccccc1 (centres unmarked) [Compound 79, N-methyl-3-(naphthalene-2-sulfonamido)-N-(3-(4-phenethyl-4-(pyrrolidin-1-yl)cyclohexyl)propyl)-3-phenylpropanamide] | 99 | 102 |  |  |
| Cc1cc(S(=O)(=O)N2CCCCC2CCC(=O)N2CCC(Cc3ccccc3)(N(C)C)CC2)c(C)cc1Cl (centres unmarked) [Compound 80, 1-(4-benzyl-4-(dimethylamino)piperidin-1-yl)-3-(1-(4-chloro-2,5-dimethylphenylsulfonyl)piperidin-2-yl)propan-1-one] | 99 | 86 |  |  |
| COc1cc(C)c(S(=O)(=O)N2CCCCC2COCC(=O)N(C)CCC2CCC(c3ccccc3)(N(C)C)CC2)c(C)c1 (centres unmarked) [Compound 81, N-(2-(4-(dimethylamino)-4-phenylcyclohexyl)ethyl)-2-((1-(4-methoxy-2,6-dimethylphenylsulfonyl)piperidin-2-yl)methoxy)-N-methylacetamide] | 99 | 104 |  |  |
